Reference: PubChem BioAssay AID720587 (Broad Institute, 2013)
Activity calls are given as the source filed them.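 Rule for the calls: active = fitted curve reaches -35% activity change at a concentration below twice the top valid dose tested; inactive = the rest, including effects opposite to the expected direction.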

Experiment: EWS/Fli1-dependent A673 cell killing, confirmation, CellTiter-Glo luminescence, cherry-pick retest (AID 720587)
Settings: A673 Ewing sarcoma viability, CellTiter-Glo ATP luminescence, 72 h; at 23.5 µM (top of the series)

| Compound | activity change, negative = cytotoxicity |
| --- | --- |
| COC(=O)C[C@@H]1CC[C@@H]2[C@H](COc3ccc(NC(=O)c4cccc(Cl)c4)cc3C(=O)N2C)O1 | -7.39% (inactive) |
| COc1ccccc1NC(=O)N1[C@@H]2CNC[C@H]1[C@@H]2c1ccc(-c2ccc(C#N)cc2)cc1 | 13.3% (inactive) |

Same assay, conditions: A673 Ewing sarcoma viability, CellTiter-Glo ATP luminescence, 72 h; at 26 µM (top of the series)

| Compound | activity change, negative = cytotoxicity |
| --- | --- |
| C[C@@H]1CN([C@@H](C)CO)S(=O)(=O)c2ccc(C#CCN(C)C)cc2O[C@@H]1CN(C)Cc1ccncc1 | -10.8% (inactive) |
| COc1cc(OC)cc(-c2cc3nc(C)c(CCC(=O)O)c(C)n3n2)c1 | 0.866% (inactive) |
| CC(=O)Nc1ccc(OCC(=O)N(CC(C)C)C2CCS(=O)(=O)C2)cc1 (configuration not stated) | 8.05% (inactive) |
| CO[C@H]1CN(C)C(=O)c2cc(NC(=O)NC(C)C)ccc2OC[C@H](C)N(Cc2ccc(-c3ccccn3)cc2)C[C@@H]1C | -4.3% (inactive) |
| COc1ccc(C(=O)Nc2cccc(C(=O)N/N=C/c3ccc(OC)cc3OC)c2)cc1 | -1.59% (inactive) |
| C(=C\c1ccc(C2[C@H]3CNC[C@@H]2N3Cc2ccccn2)cc1)/c1ccccc1 (some centres not stated) | -3.03% (inactive) |
| Cc1cc(C(=O)CN2C(=O)c3ccccc3S2(=O)=O)c(C)n1C(C)C | 21.4% (inactive) |
| CC1(CCc2ccccc2)NC(=O)N(CC(=O)N2CC(=O)Nc3ccccc32)C1=O (configuration not stated) | 7.32% (inactive) |
| C=CCOC(=O)c1sc(NC(=O)c2ccc(OC)cc2)nc1C | -13% (inactive) |
| Cc1ccccc1N=Nc1c(O)n(C)c2ccccc12 | -1.37% (inactive) |
| COc1ccccc1NS(=O)(=O)c1cc(NC(=O)c2cc3ccccc3oc2=O)ccc1C | 13% (inactive) |
| Cc1ccccc1N=CC1=C(O)c2ccccc2C1=O | -6.09% (inactive) |
| C[C@@H]1CN([C@H](C)CO)C(=O)c2cc(NC(=O)CCCCCC(=O)Nc3ccccc3N)ccc2O[C@H]1CN(C)S(=O)(=O)c1ccc(Cl)cc1 | -2.24% (inactive) |
| CCCN(C)C[C@H]1Oc2ncc(-c3ccccc3)cc2C(=O)N([C@@H](C)CO)C[C@H]1C | -4.17% (inactive) |
| COCCCNc1ccn2nc(-c3ccccc3)cc2n1 | 0.68% (inactive) |
| CC(=O)c1ccc(N(C(=O)Cn2nnc3ccccc32)C(C(=O)NCc2ccccc2)c2ccccn2)cc1 (configuration not stated) | 3.66% (inactive) |
| O=C(O)c1ccc(N/N=C/c2c[nH]c3ccccc23)cc1 | -1.6% (inactive) |
| COC(=O)c1cccc(NC(=O)NC(=O)c2ccc(Cl)cc2)c1 | -6.08% (inactive) |
| COc1ccc2cc(C(N)=O)/c(=N\NC(=O)c3ccccc3)oc2c1 | -2% (inactive) |
| CCC(C)Cn1c(O)cc2nn(-c3nc4ccccc4s3)c(=O)c-2c1C (configuration not stated) | -13.1% (inactive) |
| COc1ccc(C(=O)NCCNc2nc3cc(C)cc(C)c3cc2C#N)c(OC)c1 | 0.961% (inactive) |
| S=C(NCCN1CCOCC1)Nc1ccccc1Cl | 3% (inactive) |
| Cc1ccc2oc(/N=C(\N)NC(=O)C(C)(C)C)nc2c1 | -3.45% (inactive) |
| COC(=O)Cc1ccc(NC(=O)c2ccccc2Cl)cc1 | 5% (inactive) |
| O=C(NCCc1ccccc1)c1ccccc1NC(=O)C1CCCO1 (configuration not stated) | 0.338% (inactive) |

| Compound | activity change, negative = cytotoxicity |
| --- | --- |
| CC(C)(C)C(=O)Nc1ccc(N=Nc2ccccc2)cc1 | -13.9% (inactive) |
| C/C=C/c1ccc(C2[C@@H]3CN(C(=O)Cc4ccccc4)C[C@H]2N3)cc1 (some centres not stated) | -1.54% (inactive) |
| CC(C)NC(=O)N(C)C[C@@H]1Oc2cc(C#Cc3ccc(F)cc3)ccc2S(=O)(=O)N([C@H](C)CO)C[C@H]1C | -18.2% (inactive) |
| N/C(Cc1nc(-c2ccc(F)cc2)cs1)=N\O | -2.03% (inactive) |
| Cc1noc(C)c1NC(=O)Nc1ccc2c(c1)CC(=O)N([C@@H](C)CO)C[C@@H](C)[C@@H](CN(C)Cc1ccc(Cl)c(Cl)c1)O2 | 0.825% (inactive) |
| Cc1cc(C)cc(OCC(=O)OCC(=O)Nc2cc(S(=O)(=O)N3CCOCC3)ccc2C)c1 | -2.43% (inactive) |
| COc1ccc(/C=C2\SC(=O)N(CCCC(=O)Nc3cc(Cl)ccc3C(=O)O)C2=O)cc1 | 1.72% (inactive) |
| C/C(=N\OCc1cccc(C(=O)O)c1)c1ccc(Cl)cc1 | -3.02% (inactive) |
| COC(=O)C[C@@H]1CC[C@@H]2[C@H](COc3ccc(NC(=O)c4ccccc4)cc3C(=O)N2C)O1 | -5.14% (inactive) |
| Cc1ccsc1C(=O)OCC(=O)c1cc(C)n(C)c1C | -0.814% (inactive) |
| N#C[C@H]1[C@H](c2ccc(C#Cc3ccccc3F)cc2)[C@@H](CO)N1C(=O)C1CCOCC1 | -1.72% (inactive) |
| C(=N\Nc1ccc2ccccc2n1)/c1ccc2c(c1)OCCO2 | -22.2% (inactive) |
| O=C(Nc1ccc(NC(=O)c2cc3ccccc3o2)cc1)c1ccc2c(c1)OCCO2 | 7.76% (inactive) |
| CC(C)c1ccccc1NC(=O)COC(=O)CCN1C(=O)/C(=C\C=C\c2ccccc2)SC1=S | -0.202% (inactive) |
| CN(C(=O)COC(=O)c1cc(-c2ccccc2Cl)nc2ccccc12)C1CCS(=O)(=O)C1 (configuration not stated) | -1.76% (inactive) |
| CN(C)c1ccc(N=Nc2ccccc2Br)cc1 | -10.3% (inactive) |
| C[C@@H]1CCCCO[C@@H](CN(C)C(=O)Cc2ccccc2)[C@@H](C)CN([C@@H](C)CO)C(=O)c2cc(NS(=O)(=O)c3ccc(F)cc3)ccc2O1 | 7.89% (inactive) |
| CCOc1ccc(C(c2c(NC(=O)c3ccccc3)sc(C)c2C)N2CCN(CCO)CC2)cc1 (configuration not stated) | 9.4% (inactive) |
| O=C(C[C@@H]1CC[C@@H]2[C@H](COC[C@@H](O)CN2S(=O)(=O)c2ccc(F)cc2)O1)NCc1ccc(Cl)c(Cl)c1 | 8.17% (inactive) |
| COc1ccccc1CNC(=O)C[C@@H]1CC[C@H]2[C@@H](COC[C@H](O)CN2C(=O)Nc2ccc(C(F)(F)F)cc2)O1 | -9.47% (inactive) |
| O=C(O)CN1C(=O)/C(=C\c2ccccc2OCc2ccc(Cl)cc2Cl)SC1=S | -0.632% (inactive) |
| COc1ccc(C/C(N)=N/OC(C)=O)cc1OC | 0.039% (inactive) |
| COc1ccc2oc(C(=O)NCCc3ccccc3)c(C)c2c1 | -2.64% (inactive) |
| CCN1CCN(/C=N/c2nc3c(s2)CCCC3)CC1 | -1.1% (inactive) |
| O=C(NCc1ccccn1)c1ccc(CNS(=O)(=O)c2cccc(Cl)c2)cc1 | 0.155% (inactive) |

| Compound | activity change, negative = cytotoxicity |
| --- | --- |
| CCOc1ccc(-c2cc(CCCC(=O)NCc3ccc(C)cc3)no2)cc1 | -9.1% (inactive) |
| C[C@@H]1CN([C@@H](C)CO)C(=O)Cc2cc(NC(=O)Cn3cnnn3)ccc2O[C@@H]1CN(C)Cc1ccc(Oc2ccccc2)cc1 | 8.72% (inactive) |
| COc1cc(/C=N/NS(=O)(=O)c2ccc3ccccc3c2)ccc1OCc1ccc(C(=O)O)cc1 | 0.172% (inactive) |
| Cc1noc(C)c1NC(=O)Nc1ccc2c(c1)CC(=O)N([C@H](C)CO)C[C@@H](C)[C@@H](CN(C)Cc1ccc(Cl)c(Cl)c1)O2 | 7.25% (inactive) |
| CCOC(=O)Cc1csc(NC(=S)NC(=O)c2ccc(C)cc2)n1 | -1.19% (inactive) |
| O=C(O)c1ccc(N/N=C/c2ccc(OC(=O)c3cccc(Cl)c3)cc2)cc1 | -8.45% (inactive) |
| CCCn1nnc(NC(=S)NC(=O)C(C)(C)C)n1 | -3.83% (inactive) |
| COc1ccc(Nc2oc(COc3ccccc3OC)nc2C#N)cc1 | 2.48% (inactive) |
| Nc1ccc(Oc2cccc(Oc3ccc(N)cc3)c2)cc1 | -3.72% (inactive) |
| C=CCn1c(O)c(N=Nc2ccccc2)c2ccccc21 | 7.11% (inactive) |
| Cc1ccc(N=C2NC(=O)/C(=C\c3cccs3)S2)cc1C | 1.74% (inactive) |
| Cc1ccc(S(=O)(=O)N(C)C[C@H]2Oc3c(cccc3N(C)C)C(=O)N([C@@H](C)CO)C[C@@H]2C)cc1 | -1.85% (inactive) |
| C[C@@H]1CN([C@H](C)CO)S(=O)(=O)c2ccc(C#CC3CC3)cc2O[C@@H]1CN(C)Cc1ccccc1F | -19.6% (inactive) |
| CCOc1ccccc1CNC(=O)c1ccc(Sc2ccc(Cl)cc2)c(NC(C)=O)c1 | -0.342% (inactive) |
| Nc1ccc(Oc2ccccc2-c2ccccc2)cc1 | -6.58% (inactive) |
| CCOc1ccc(-c2noc(CCC(=O)O)n2)cc1 | 6.68% (inactive) |
| O=C(CN1C(=O)C(=O)c2ccccc21)c1ccc(Cl)cc1 | -6.17% (inactive) |
| COc1ccc(NC(=O)N(C)[C@H]2C[C@H]3c4[nH]c5ccccc5c4CCN3C(=O)[C@H]2CO)cc1 | 5.76% (inactive) |
| O=C(O)c1ccc(N/N=C/c2c(F)cccc2Cl)cc1 | -4.19% (inactive) |
| COc1ccc(/C=C2/SC(=S)N(CCCC(=O)Nc3ccccc3C(=O)O)C2=O)cc1 | 5.45% (inactive) |
| Cc1ccc(/C=N/Nc2ccc3ccccc3n2)o1 | -3.75% (inactive) |
| N#C[C@@H]1[C@H](c2ccc(C#Cc3cccc(F)c3)cc2)[C@@H](CO)N1C(=O)C1CCCC1 | -2.07% (inactive) |
| Cc1ccc(C(CC(=O)O)Nc2nc(N3CCOCC3)nc(N3CCOCC3)n2)cc1 (configuration not stated) | 16.9% (inactive) |
| O=C(CCCN1C(=O)/C(=C/c2ccccc2Cl)SC1=S)NNC(=O)c1ccc(Cl)cc1Cl | -0.616% (inactive) |
| COc1ccc(/C=N/Nc2ccc(C(=O)O)cc2)cc1Br | -2.31% (inactive) |
